Assay results as given in US8992891B2, “Therapeutic approaches for treating CMT and related disorders” (Pharnext, priority 2007, dated 2015).

What was measured:
PMP22 protein = PMP22 protein expression analysis by flow cytometry (FACS) in Schwann cells; type: cell-based, rat; design: key to Protein (PMP22 expression decrease): +: significantly decreases PMP22 levels compared to control; details: for Protein (PMP22 expression decrease): rat primary Schwann cells, FACS, 24 hrs
Method: One day later, Schwann cells are stimulated by combinations of drugs or drugs alone during 24 hrs (3 wells/condition). The preparation of each compound is performed just prior to its addition to the cell culture medium. Drugs are added to a defined medium composed of DMEM-F12, with 1% Insulin-Transferrin-Selenium-X (ITS, Invitrogen #51300), 16 μg/ml of Putrescine, 0.02 μg/ml of corticosterone, 10 nM Progesterone and 50 μg/ml of gentamicin. The absence of Forskolin during drug stimulation avoids adenylate cyclase saturation. 8 hrs, 24 hrs and 48 hrs after drugs incubation, supernatants are recovered, centrifuged and frozen. SC are detached with trypsin-EDTA. As soon as the majority of cells are in suspension, the trypsin is neutralised using DMEM with 10% FCS. Supernatants with cells are recovered and centrifuged. The pellets of cells are transferred in micro tubes, washed in PBS once and fixed with a specific solution (AbCys #Reagent A BUF09B). 10 minutes later, cells are rinsed once with PBS and kept at 4° C. Five days after cell fixation, all cell preparations with different incubation times are labelled using the following protocol. […] Cells are then centrifuged at 7000 rpm for 5 minutes and cell pellets are rinsed once in PBS. A secondary antibody is added, coupled to Alexa Fluor 488 (goat anti-rabbit IgG, Molecular Probes #A11008, 1/100), for one hour at room temperature. Cells are then centrifuged at 7000 rpm for 5 minutes and cell pellets are rinsed once in PBS. The labelling is increased adding a tertiary antibody coupled to Alexa Fluor 488 (chicken anti-goat IgG, Molecular Probes #A21467, 1/100) for one hour incubation, at room temperature. Cells are then rinsed once in PBS. Control without any antibody (unlabelled cells) is performed to determine the level of autofluorescence and adapted the sensitivity of the photomultiplicators. Control with both secondary and tertiary antibodies but without primary antibody, is performed to assess non specific binding of antibodies. Data acquisition and analysis are performed with a FACS Array cytometer and FACS Array software (Becton Dickinson) on 5000 cells. Forward Scatter (FSC) correlated with cell volume (size) and Side Scatter (SSC) depending on inner complexity of cells (granularity) are analysed. For expression of PMP22, analysis is performed within the total cells and percent of positive cells is calculated. Positive cells are cells with fluorescence intensity higher than the control with secondary antibody. We tested the ability of some drugs to inhibit PMP22 protein expression (FACS analysis). […] The results of the action of some individual drugs on the protein level of PMP22 are also shown on table 1 above.

[1] = tested on: hemizygous PMP22 transgenic rat (CMT rat); experiment: Electrophysiological evaluation in CMT transgenic rats; type: in vivo; details: versus TG placebo group; for potential amplitude measured on the distal portion of the tail: CMT rats treated during 20 weeks
Description: When appropriate, the rats are subjected to electrophysiological evaluation and histological measurement.

[2] = tested on: hemizygous PMP22 transgenic rat (CMT rat); experiment: Morphometrical analysis of hindlimb tissues and body weight in CMT rats; details: CMT female rats, end of study, versus control WT rats

Row | Structure (SMILES) | PMP22 protein expression, in words (PMP22 protein; Schwann cells in vitro, 24 hrs of incubation, compared to untreated controls) | Protein (PMP22 expression decrease) (PMP22 protein) | potential amplitude measured on the distal portion of the tail [1] | nerve conduction velocity (NCV) ([1]; CMT rats) | deficiencies of sciatic nerve and soleus muscle masses [2]
1 | CC[C@@H]1C(=O)OC[C@@H]1Cc1cncn1C [Pilocarpine] | decreases expression of the PMP22 protein | + | failed to reach statistical significance | – | –
2 | Cn1cc[nH]c1=S [Methimazole] | – | + | significantly improved | not significantly affected | completely corrected
